Laboratory results published in US6780596B2, “Methods for determining the activity of complex mixtures” (Ashni Naturaceuticals, Inc., priority 1998, dated 2004).

Test system: LNCaP prostate cells
Experiment: Phosphotyrosyl protein expression in LNCaP prostate cells (SDS-PAGE, anti-phosphotyrosine immunoblot)
Assay type: cell-based, human
Settings: for number of phosphotyrosylprotein bands decreased in staining intensity / affected: of sixteen bands in dividing LNCaP cells, 15 to 90 kDa
Excerpt: Chemicals: Anti-phosphotyrosine antibodies may be purchased from Upstate Biotechnology (Lake Placid, N.Y.). Saw palmetto (Serenoa repens) extract may be obtained from Ashland Nutritional (Irvine Calif.). All other chemicals may be purchased from Sigma Chemical Company (St. Louis, Mo.) and are the highest purity commercially available.
Human Prostate Cell Line: The LNCaP prostate cell line (CRL-1740) is useful as a model for prostate hyperplasia and may be obtained from the American Type Culture Collection (Bethesda, Md.). LNCaP cells were originally isolated from a person and are characteristic of prostatic carcinoma. They are androgen and estrogen responsive, produce prostate specific antigen (PSA), and prostatic acid phosphatase in culture.
Cell Plating: LNCaP cells may be propagated as monolayers according to the instructions of the supplier. For experiments, cells may be plated at a density of 1×10^5 cells per mL in 100 mm plates, 20 mL per plate, 3 plates per treatment. […]
On day three, a subset of control LNCaP cells is synchronized to Go by reducing the serum concentration of the medium to 0.5%. These cells are termed quiescent, resting or unstimulated LNCaP cells.
After a four-day incubation period with the test materials, the test LNCaP cells may be collected by washing plates three times with ice-cold phosphate-buffered saline, pH 7.4 (PBS) over ice, removed by scraping, pelleted by centrifugation at 4° C. The cell pellet may be lysed for 20 min. in 20 mM Tris buffer (pH 8.0) with 137 mM NaCl, 10% glycerol, 1% Nonidet P-40, 1 mM phenylmethylsulfonyl fluoride, 0.15 units/mL aprotonin, and 1 mM sodium orthovanadate while on wet ice. Cell lysates are collected after centrifugation at 30,000 rpm at 4° C. for 10 minutes to separate cellular debris from lysates.
Gel Electrophoresis: Sodium dodecyl sulfate polyacrylamide gel electrophoresis (PAGE) is performed using 10% polyacrylamide gels, as described by Laemmli, U.K. and Favre, M., 80 Journal of Molecular Biology 575-99 (1973), with the modification that the cell lysates (100 μg protein/lane) are heated at 100° C. for three minutes.
Immunoblotting: The immunoblotting is performed as described by Towbin et al., 76 Proc. Natl. Acad. Sci. USA 4350 (1979), however, a Milliblot SDE electroblot apparatus (Millipore, Bedford, Mass.), is used to transfer proteins from the polyacrylamide gels to an IMMOBILON® membrane filter. Complete transfers are accomplished in 25-30 minutes at 500 mA. Membranes used for blotting are blocked by incubating in TBS (Tris buffered saline, 50 mM Tris, 150 mM NaCl, pH 7.5) containing 5% nonfat dry milk for 30 minutes at room temperature. Phosphotyrosylproteins are visualized by incubation of the blots with the anti-phosphotyrosine antibody in TBST (0.05% Tween 20 in TBS) for two hours and then a second incubation at room temperature with alkaline phosphatase-conjugated secondary antibody diluted 1:1000 in TBST for two hours. The enzymatic reaction is developed for 15 minutes. Molecular weights of immuno-stained proteins are estimated by adding molecular weight standards to reference lanes and staining the membrane filters with amido black 10B.
Blots are translated into TIFF-formatted files with a Microtech 600GS scanner and quantified using Scan Analysis (BIOSOFT™, Cambridge, UK). Summary scans are then printed and peak heights are measured directly from figure. One density unit (Du) is defined as one mm of the resulting peak height.
Protein Determination: Spectrophotometric determination of protein concentration is determined with bicinchoninic acid as reported by Smith, et al. Measurement of protein using bicinchoninic acid. 150 ANAL. BIOCHEM. 76-85 (1985).
Statistical Analysis: Dose responses are defined as three or more consecutive doses resulting in a consistent, reproducible appearance or disappearance of a phosphotyrosylprotein in the immunoblot. […]

CC[C@H](CC[C@@H](C)[C@H]1CC[C@H]2[C@@H]3CC=C4C[C@@H](O)CC[C@]4(C)[C@H]3CC[C@]12C)C(C)C [beta-sitosterol]
phosphotyrosylproteins at 45 and 50 kDa (50 μg beta-sitosterol/mL): faint bands | concentration at which the 36 and 40 kDa phosphotyrosylproteins disappear entirely (beta-sitosterol 5, 10 or 50 μg/mL): 10 µg/mL | number of phosphotyrosylprotein bands decreased in staining intensity / affected: four

CC(C)(C)NC(=O)[C@H]1CC[C@H]2[C@@H]3CC[C@H]4NC(=O)C=C[C@]4(C)[C@H]3CC[C@]12C [finasteride, Finasteride]
40 kDa band (0.05 μg/mL finasteride): barely visible | tyrosylphosphorylation of the 28 and 36 kDa proteins (0.05 μg/mL finasteride): completely eliminated | number of phosphotyrosylprotein bands decreased in staining intensity / affected: three

CC(C)=CCC/C(C)=C/C=C/C(C)=C/C=C/C(C)=C/C=C/C=C(C)/C=C/C=C(C)/C=C/C=C(\C)CCC=C(C)C [lycopene]
concentration at which the 15, 17 and 20 kDa phosphotyrosylproteins disappear entirely (lowest concentration tested): 100 ng/mL | number of phosphotyrosylprotein bands decreased in staining intensity / affected: fourteen

C/C1=C2/[N-][C@H]([C@H](CC(N)=O)[C@@]2(C)CCC(=O)NC[C@@H](C)OP(=O)([O-])O[C@H]2[C@@H](O)[C@@H](n3cnc4cc(C)c(C)cc43)O[C@@H]2CO)[C@]2(C)N=C(/C(C)=C3N=C(/C=C4N=C1[C@@H](CCC(N)=O)C\4(C)C)[C@@H](CCC(N)=O)[C@]\3(C)CC(N)=O)[C@@H](CCC(N)=O)[C@]2(C)CC(N)=O.[CH3-].[Co] [methylcobalamine]
phosphotyrosylproteins at 40 and 50 kDa (500 μg methylcobalamine/mL): faint bands | effective concentration (effect on phosphotyrosylprotein expression): approximately 500 μg/mL | concentration at which the 45 kDa phosphotyrosylprotein disappears entirely (methylcobalamine 5, 50 or 500 μg/mL): 500 µg/mL | number of phosphotyrosylprotein bands decreased in staining intensity / affected: three

C[C@H]1[C@H](C)CC[C@]2(C(=O)O)CC[C@]3(C)C(=CC[C@@H]4[C@@]5(C)CC[C@H](O)C(C)(C)[C@@H]5CC[C@]43C)[C@H]12 [ursolic acid]
concentration at which the phosphotyrosylproteins at 28, 30, 50 and 60 kDa are no longer visible (highest concentration tested): 5 µg/mL | concentration at which the 17, 20, 28 and 34 kDa phosphotyrosylproteins disappear entirely (lowest concentration tested): 0.5 µg/mL | number of phosphotyrosylprotein bands decreased in staining intensity / affected: ten
